Measurements as given in ChEMBL document CHEMBL3885881, “DrugMatrix”.

Species: Rattus norvegicus
Assay: DrugMatrix - Regimen: Daily Repeat
Type: toxicity, organism-based, Sprague-Dawley
Design: regimen Daily Repeat, gender Male, age 6-8 weeks
Conditions: in vivo, po, route oral GAVAGE, vehicle .5 % CMC; for ALBUMIN / ALKALINE PHOSPHATASE / ASPARTATE AMINOTRANSFERASE / BLOOD UREA NITROGEN / CARBON DIOXIDE / CHLORIDE / CHOLESTEROL / CREATINE PHOSPHOKINASE / CREATININE / GLUCOSE / LACTATE DEHYDROGENASE / PHOSPHORUS / POTASSIUM / SODIUM / TOTAL BILIRUBIN / TOTAL PROTEIN / URIC ACID / ALANINE AMINOTRANSFERASE: tissue Plasma; for ABSOLUTE BASOPHIL / ABSOLUTE EOSINOPHIL / ABSOLUTE LYMPHOCYTE / ABSOLUTE SEGMENTED NEUTROPHIL / BASOPHIL / EOSINOPHIL / ERYTHROCYTE COUNT / HEMATOCRIT / LEUKOCYTE COUNT / LYMPHOCYTE / MEAN CORPUSCULAR HEMOGLOBIN / MEAN CORPUSCULAR HEMOGLOBIN CONCENTRATION / MEAN CORPUSCULAR VOLUME / MONOCYTE / NEUTROPHIL / NUCLEATED RED BLOOD CELLS / PLATELET COUNT: tissue Blood
[1] = 3 mg/kg, 120 h, dose level Low, time 5 day
[2] = 250 mg/kg, 72 h, dose level M1, time 3 day
[3] = 250 mg/kg, 120 h, dose level M1, time 5 day
[4] = 500 mg/kg, 72 h, dose level High, time 3 day

CCN(CC)CCOc1ccc(/C(=C(/Cl)c2ccccc2)c2ccccc2)cc1 [ENCLOMIPHENE]
ALBUMIN [1]: 4.23 G/DL
ALKALINE PHOSPHATASE [1]: 396 u/L
ASPARTATE AMINOTRANSFERASE [1]: 74.33 u/L
BLOOD UREA NITROGEN [1]: 15 mg/dL
CARBON DIOXIDE [1]: 26 mmol/L
CHLORIDE [1]: 102.33 MEQ/L
CHOLESTEROL [1]: 19 mg/dL
CREATINE PHOSPHOKINASE [1]: 301 u/L
CREATININE [1]: 0.17 mg/dL
GLUCOSE [1]: 167.33 mg/dL
LACTATE DEHYDROGENASE [1]: 159.33 u/L
PHOSPHORUS [1]: 11.77 mg/dL
POTASSIUM [1]: 6.49 MEQ/L
SODIUM [1]: 144.63 MEQ/L
TOTAL BILIRUBIN [1]: 0.13 mg/dL
TOTAL PROTEIN [1]: 6.17 G/DL
URIC ACID [1]: 1.3 mg/dL
ABSOLUTE BASOPHIL [2]: 0 CELLS/uL
ABSOLUTE EOSINOPHIL [2]: 257 CELLS/uL
ABSOLUTE LYMPHOCYTE [2]: 8100 CELLS/uL
ABSOLUTE SEGMENTED NEUTROPHIL [2]: 6509.67 CELLS/uL
BASOPHIL [2]: 0%
EOSINOPHIL [2]: 1.67%
ERYTHROCYTE COUNT [2]: 6.81 x10E6/uL
HEMATOCRIT [2]: 42.67%
LEUKOCYTE COUNT [2]: 14.87 x10E3/uL
LYMPHOCYTE [2]: 63%
MEAN CORPUSCULAR HEMOGLOBIN [2]: 22.93 pg
MEAN CORPUSCULAR HEMOGLOBIN CONCENTRATION [2]: 36.33 G/DL
MEAN CORPUSCULAR VOLUME [2]: 63.07 fL
MONOCYTE [2]: 0%
NEUTROPHIL [2]: 35.33%
NUCLEATED RED BLOOD CELLS [2]: 0 /100WBC
PLATELET COUNT [2]: 1358.67 x10E3/uL
ALANINE AMINOTRANSFERASE [2]: 103.33 u/L
ALBUMIN [2]: 3.87 G/DL
ALKALINE PHOSPHATASE [2]: 393.33 u/L
ASPARTATE AMINOTRANSFERASE [2]: 112.33 u/L
BLOOD UREA NITROGEN [2]: 17 mg/dL
CARBON DIOXIDE [2]: 21.67 mmol/L
CHLORIDE [2]: 104.67 MEQ/L
CHOLESTEROL [2]: 20.67 mg/dL
CREATINE PHOSPHOKINASE [2]: 596.67 u/L
CREATININE [2]: 0.17 mg/dL
GLUCOSE [2]: 156.67 mg/dL
LACTATE DEHYDROGENASE [2]: 305 u/L
PHOSPHORUS [2]: 12.63 mg/dL
POTASSIUM [2]: 6.02 MEQ/L
SODIUM [2]: 145 MEQ/L
TOTAL BILIRUBIN [2]: 0.0667 mg/dL
TOTAL PROTEIN [2]: 5.43 G/DL
URIC ACID [2]: 2.13 mg/dL
ABSOLUTE BASOPHIL [3]: 0 CELLS/uL
ABSOLUTE EOSINOPHIL [3]: 97.33 CELLS/uL
ABSOLUTE LYMPHOCYTE [3]: 15789.33 CELLS/uL
ABSOLUTE SEGMENTED NEUTROPHIL [3]: 1980 CELLS/uL
BASOPHIL [3]: 0%
EOSINOPHIL [3]: 0.67%
ERYTHROCYTE COUNT [3]: 7.29 x10E6/uL
HEMATOCRIT [3]: 44.07%
LEUKOCYTE COUNT [3]: 17.87 x10E3/uL
LYMPHOCYTE [3]: 88.33%
MEAN CORPUSCULAR HEMOGLOBIN [3]: 22.33 pg
MEAN CORPUSCULAR HEMOGLOBIN CONCENTRATION [3]: 36.8 G/DL
MEAN CORPUSCULAR VOLUME [3]: 60.6 fL
MONOCYTE [3]: 0%
NEUTROPHIL [3]: 11%
NUCLEATED RED BLOOD CELLS [3]: 0 /100WBC
PLATELET COUNT [3]: 1119 x10E3/uL
ALANINE AMINOTRANSFERASE [3]: 135 u/L
ALBUMIN [3]: 3.8 G/DL
ALKALINE PHOSPHATASE [3]: 350 u/L
ASPARTATE AMINOTRANSFERASE [3]: 128 u/L
BLOOD UREA NITROGEN [3]: 17.67 mg/dL
CARBON DIOXIDE [3]: 25.33 mmol/L
CHLORIDE [3]: 104.33 MEQ/L
CHOLESTEROL [3]: 27.67 mg/dL
CREATINE PHOSPHOKINASE [3]: 820.67 u/L
CREATININE [3]: 0.15 mg/dL
GLUCOSE [3]: 142.67 mg/dL
LACTATE DEHYDROGENASE [3]: 135 u/L
PHOSPHORUS [3]: 11.73 mg/dL
POTASSIUM [3]: 6.75 MEQ/L
SODIUM [3]: 147.17 MEQ/L
TOTAL BILIRUBIN [3]: 0.1 mg/dL
TOTAL PROTEIN [3]: 5.37 G/DL
URIC ACID [3]: 1.8 mg/dL
ABSOLUTE BASOPHIL [4]: 0 CELLS/uL
ABSOLUTE EOSINOPHIL [4]: 68.67 CELLS/uL
ABSOLUTE LYMPHOCYTE [4]: 11139 CELLS/uL
ABSOLUTE SEGMENTED NEUTROPHIL [4]: 1343.67 CELLS/uL
BASOPHIL [4]: 0%
EOSINOPHIL [4]: 0.67%
ERYTHROCYTE COUNT [4]: 6.43 x10E6/uL
HEMATOCRIT [4]: 40.43%
LEUKOCYTE COUNT [4]: 12.83 x10E3/uL
LYMPHOCYTE [4]: 86.67%
MEAN CORPUSCULAR HEMOGLOBIN [4]: 24.7 pg
MEAN CORPUSCULAR HEMOGLOBIN CONCENTRATION [4]: 39.23 G/DL
MEAN CORPUSCULAR VOLUME [4]: 62.87 fL
MONOCYTE [4]: 2%
NEUTROPHIL [4]: 10.67%
NUCLEATED RED BLOOD CELLS [4]: 0 /100WBC
PLATELET COUNT [4]: 1271 x10E3/uL
ALANINE AMINOTRANSFERASE [4]: 113.33 u/L
ALBUMIN [4]: 3.63 G/DL
ALKALINE PHOSPHATASE [4]: 288.33 u/L
ASPARTATE AMINOTRANSFERASE [4]: 124 u/L
BLOOD UREA NITROGEN [4]: 11 mg/dL
CARBON DIOXIDE [4]: 32 mmol/L
CHLORIDE [4]: 105.33 MEQ/L
CHOLESTEROL [4]: 25.33 mg/dL
CREATINE PHOSPHOKINASE [4]: 861 u/L
CREATININE [4]: 0.1 mg/dL
GLUCOSE [4]: 141 mg/dL
LACTATE DEHYDROGENASE [4]: 193.67 u/L
PHOSPHORUS [4]: 12.93 mg/dL
POTASSIUM [4]: 5.84 MEQ/L
SODIUM [4]: 146.17 MEQ/L
TOTAL BILIRUBIN [4]: 0.1 mg/dL
TOTAL PROTEIN [4]: 5.03 G/DL
URIC ACID [4]: 1.43 mg/dL
